Source: patent publication US5405861A, “Triazole compounds and antifungal compositions thereof” (Takeda Chemical Industries, Co., Ltd., priority 1989, dated 1995)
Where two headings read alike, the source gives them in different places.

Legend:
[1] = test system: Candida albicans (IFO 0538); experiment: Antifungal activity against Candida albicans, paper disc growth inhibition zone (Tables 5 and 6); format: cell-based; conditions: 28° C., 2 days incubation; for zone of inhibition at 1000 µg/mL: 48 h, read-out: Inhibition zone diameter
Protocol: The antifungal activities of the compounds (I) were evaluated by the following method: a sheet of filter paper disc (manufactured by Toyo Seisakusho, 8 mm in diameter) soaked in a 1000 μg/ml solution of a compound (I) in methanol was placed on an agar plate, which was incubated at 28° C. for 2 days, and the diameter of the growth inhibition zone around the filter paper disc was measured. The following culture media were used:
A: yeast nitrogen base agar medium
B: yeast nitrogen base agar medium (pH 7.0)

Candida albicans [2] = experiment: Infection-preventing effect in experimental infection in mice, Method 1 (Table 7-1); format: in vivo, Crj:CDF1 mice; conditions: given 0 and 2 hours after infection, survival 7 days after infection, total dose
Protocol: (§1) Method 1 (Table 7-1): To 5-week-old Crj:CDF1 mice the minimum lethal dose of Candida albicans was inoculated intravenously. The test drug was given twice 0 and 2 hours after infection. The effectiveness of the drug was expressed in ED50 values calculated by the Reed and Muench method from the survival rate 7 days after infection. The ED50 values were calculated based on the total dose given on the two occasions.

Candida albicans [3] = experiment: Infection-preventing effect in experimental infection in mice, Method 2 (Table 7-2); format: in vivo, Crj:CDF1 mice; conditions: po, 168 h, p.o., given just after infection, survival 7 days after infection
Protocol: as §1, with “Method 2” for “Method 1”, “(Table 7-2):” for “(Table 7-1):”, “given just” for “given twice 0 and 2 hours”

[4] = pH 7, B medium (yeast nitrogen base agar, pH 7.0)
[5] = Candida albicans, sc, 168 h, s.c., read-out: ED50
[6] = A medium (yeast nitrogen base agar)
[7] = Candida albicans, po, 168 h, p.o., read-out: ED50

| Compound | zone of inhibition at 1000 µg/mL [1, 4] [mm] | ED50 (Candida albicans [2]; [5]) [mg/kg] | ED50 (Candida albicans [3]) [mg/kg] | also measured |
| --- | --- | --- | --- | --- |
| C[C@@H](SCc1ncc2cnccn12)[C@](O)(Cn1cncn1)c1ccc(F)cc1F (relative stereo) [Compound 57, (2RS,3RS)-2-(2,4-difluorophenyl)-3-(imidazo[1,5-a]pyradin-3-yl)methylthio-1-(1H-1,2,4-triazol-1-yl)-2-butanol] | 30 | 0.5 | – | – |
| C[C@@H](SCc1nccn1C(CF)CF)[C@](O)(Cn1cncn1)c1ccc(F)cc1F (relative stereo) [Compound 59] | 30 | 1.4 | – | – |
| CC(n1cncn1)C(O)(CS)c1ccc(F)cc1F (single isomer, unassigned) [Compound 115, 2-(2,4-difluorophenyl)-1-mercapto-3-[(1H)-1,2,4-triazol-1-yl]-2-butanol] | 33 | > 4 | – | – |
| CC(n1cncn1)C(O)(CS)c1ccc(F)cc1F (single isomer, unassigned) [Compound 116, 2-(2,4-difluorophenyl)-1-mercapto-3-[(1H)-1,2,4-triazol-1-yl]-2-butanol] | – | – | – | Inhibition zone diameter ([1]; B medium (yeast nitrogen base agar, pH 7.0)): 30 mm; ED50 (Candida albicans [2]; s.c.): > 4.0 mg/kg |
| OC(CSCCn1cncn1)(Cn1cncn1)c1ccc(F)cc1F (stereo not shown) [Compound 2] | 17 | 19.3 | – | zone of inhibition at 1000 µg/mL [1, 6]: 18 mm |
| O=S(=O)(CCn1cncn1)CC(O)(Cn1cncn1)c1ccc(F)cc1F (stereo not shown) [Compound 3] | – | 32.4 | – | zone of inhibition at 1000 µg/mL [1, 6]: 13 mm |
| CC(SCC(O)(Cn1cncn1)c1ccc(F)cc1F)c1ccncc1 (stereo not shown) [Compound 10] | – | 35.4 | – | Inhibition zone diameter [1, 6]: 21 mm |
| C[C@H](S)[C@@](O)(Cn1cncn1)c1ccc(F)cc1F [Compound 42, (2S,3S)-2-(2,4-difluorophenyl)-3-mercapto-1-(1H-1,2,4-triazol-1-yl)-2-butanol] | 34 | – | > 4 | – |
| C[C@@H](S)[C@](O)(Cn1cncn1)c1ccc(F)cc1F [Compound 43, (2R,3R)-2-(2,4-difluorophenyl)-3-mercapto-1-(1H-1,2,4-triazol-1-yl)-2-butanol] | 40 | 0.18 | – | ED50 (Candida albicans [2]; [7]): 0.18 mg/kg |
| CC(=O)S[C@H](C)[C@](O)(Cn1cncn1)c1ccc(F)cc1F [Compound 45, (2R,3R)-3-acetylthio-2-(2,4-difluorophenyl)-1-(1H-1,2,4-triazol-1-yl)-2-butanol] | 40 | 0.16 | – | ED50 (Candida albicans [2]; [7]): 0.18 mg/kg |
| CC(C)C(=O)S[C@H](C)[C@](O)(Cn1cncn1)c1ccc(F)cc1F [Compound 62, (2R,3R)-2-(2,4-difluorophenyl)-3-isobutyrylthio-1-(1H-1,2,4-triazol-1-yl)-2-butanol] | 45 | 0.5 | – | ED50 (Candida albicans [2]; [7]): 0.35 mg/kg |
| C[C@@H](SCc1nccn1C)[C@](O)(Cn1cncn1)c1ccc(F)cc1F [Compound 78] | 30 | – | 0.5 | – |
| C[C@@H](SCc1cncn1C)[C@](O)(Cn1cncn1)c1ccc(F)cc1F [Compound 91] | 30 | – | < 0.25 | – |
| C[C@@H](SCc1ncc2n1CCC2)[C@](O)(Cn1cncn1)c1ccc(F)cc1F [Compound 97] | 27 | – | 0.5 | – |
| Cc1csc(CS[C@H](C)[C@](O)(Cn2cncn2)c2ccc(F)cc2F)n1 [Compound 99] | 35 | – | 1.4 | – |
| Cc1nc(CS[C@H](C)[C@](O)(Cn2cncn2)c2ccc(F)cc2F)cs1 [Compound 107] | 33 | 0.71 | 0.39 | ED50 (Candida albicans [2]; [7]): < 0.5 mg/kg |
| Cc1ncc(CS[C@H](C)[C@](O)(Cn2cncn2)c2ccc(F)cc2F)s1 [Compound 108] | 40 | – | 1.4 | – |
| C[C@@H](SCc1nccn1CC(F)F)[C@](O)(Cn1cncn1)c1ccc(F)cc1F [Compound 109] | 28 | – | 0.5 | – |
| C[C@@H](SCc1nccn1C1CC1)[C@](O)(Cn1cncn1)c1ccc(F)cc1F [Compound 110] | 40 | 0.35 | – | ED50 (Candida albicans [2]; [7]): 0.35 mg/kg |

| Compound | zone of inhibition at 1000 µg/mL [1, 4] [mm] | ED50 (Candida albicans [2]; [5]) [mg/kg] | ED50 (Candida albicans [3]) [mg/kg] | also measured |
| --- | --- | --- | --- | --- |
| Cc1oc(=O)oc1CS[C@H](C)[C@](O)(Cn1cncn1)c1ccc(F)cc1F [Compound 111] | 35 | 0.71 | – | ED50 (Candida albicans [2]; [7]): 0.89 mg/kg |
| C[C@@H](SCc1ncc2cnccn12)[C@](O)(Cn1cncn1)c1ccc(F)cc1F [Compound 112] | 30 | – | 0.5 | – |
| C[C@@H](SCc1nncn1C1CC1)[C@](O)(Cn1cncn1)c1ccc(F)cc1F [Compound 114] | 15 | – | 0.4 | – |
| C[C@@H](S)[C@@](O)(Cn1cncn1)c1ccc(F)cc1F [Compound 117, (2S,3R)-2-(2,4-difluorophenyl)-3-mercapto-1-(1 H-1,2,4-triazol-1-yl)-2-butanol] | 25 | – | > 4 | – |
| C[C@H](S)[C@](O)(Cn1cncn1)c1ccc(F)cc1F [Compound 118, (2R,3S)-2-(2,4-difluorophenyl)-3-mercapto-1-(1H-1,2,4-triazol-1-yl)-2-butanol] | 33 | – | 2.8 | – |
| CC(C)(S)C(O)(Cn1cncn1)c1ccc(F)cc1F (stereo not shown) [Compound 119] | 30 | – | 0.18 | – |
| OC(Cn1cncn1)(c1ccc(F)cc1F)C1(S)CC1 (stereo not shown) [Compound 120] | 30 | – | 0.35 | – |
| C[C@@H](SCc1csc(N)n1)[C@](O)(Cn1cncn1)c1ccc(F)cc1F [Compound 121] | 35 | – | 0.5 | – |
| C[C@@H](SCc1csc(C(F)(F)F)n1)[C@](O)(Cn1cncn1)c1ccc(F)cc1F [Compound 122] | 35 | – | 0.5 | – |
| C[C@@H](SCc1csc(C2CC2)n1)[C@](O)(Cn1cncn1)c1ccc(F)cc1F [Compound 123] | 35 | – | 0.5 | – |
| C[C@@H](SCc1cn2ccncc2n1)[C@](O)(Cn1cncn1)c1ccc(F)cc1F [Compound 124] | 30 | – | 0.7 | – |
| C[C@@H](SCc1cn2cccnc2n1)[C@](O)(Cn1cncn1)c1ccc(F)cc1F [Compound 125] | 33 | – | 0.5 | – |
| C[C@@H](SCc1ccncn1)[C@](O)(Cn1cncn1)c1ccc(F)cc1F [Compound 126] | 38 | – | 2 | – |
| Cc1nccc(CS[C@H](C)[C@](O)(Cn2cncn2)c2ccc(F)cc2F)n1 [Compound 127] | 33 | – | 2 | – |
| C[C@@H](SCc1nsc(N)n1)[C@](O)(Cn1cncn1)c1ccc(F)cc1F [Compound 128] | 30 | – | 2 | – |
| C[C@@H](SCc1cnc2cccnn12)[C@](O)(Cn1cncn1)c1ccc(F)cc1F [Compound 129] | 35 | – | 0.5 | – |
| C[C@@H](SCc1ncc2ncccn12)[C@](O)(Cn1cncn1)c1ccc(F)cc1F [Compound 130] | 35 | – | 0.7 | – |
| C[C@@H](SCc1ncc2cccnn12)[C@](O)(Cn1cncn1)c1ccc(F)cc1F [Compound 131] | 40 | – | 0.7 | – |
